Assay results published in patent US6399654B1, “Biflavanoids and derivatives thereof as antiviral agents” (priority 1995, dated 2002).
In brackets after ≈: the same amount, converted by molar mass. Several values for one entry are separate records, joined by “and”; a condition that tells them apart may be missing. Equal entries are not always repeated. Where two headings read alike, the source gives them in different places.

Experiments:
[1] = Cytotoxicity by neutral red dye uptake, BSC-1 cells; conditions: African green monkey
[2] = system: Parainfluenza Type 3 Virus; assay: organism not typed; type: cell-based; conditions: MA104, read-out: Neutral Red EC50
Hepatitis B Virus (HBV) [3] = assay: HBV replication intermediates (RI, intracellular HBV DNA) in 2.2.15 cells; type: cell-based
Procedure: (§1) Test compounds were added daily for a nine continuous day period; the culture medium was collected and stored for analysis of extracellular (virion) HBV DNA after 0, 3, 6, and 9 days of treatment. The treated cells were lysed 24 hours following day 9 of treatment for the analysis of intracellular HBV genomic forms. The overall levels of HBV DNA (both extracellular and intracellular DNA) and the relative rate of HBV replication (intracellular DNA) were analyzed quantitatively. The analysis was performed using blot hybridization techniques and [^32P]-labeled HBV-specific probes. The HBV DNA levels were measured by comparison to known amounts of HBV DNA standards applied to every nitrocellulose membrane (gel or slot blot). An AMBIS beta scanner, which measures the radioactive decay of the hybridized probes directly from the nitrocellulose membranes, was used for the quantitative analysis. Standard curves, generated by multiple analyses, were used to correlate CPM measurements made by the beta scanner with relative levels of target HBV DNA. The levels of HBV virion DNA released into the culture medium were analyzed by a slot blot hybridization procedure. HBV DNA levels were then compared to those at day 0 to determine the effect of the test compound. A known positive drug was evaluated in parallel with test compounds in each test.

Measles Virus [4] = assay: Measles virus neutral red dye uptake in BSC-1 cells; type: cell-based; conditions: Measles morbillivirus, BSC-1
Measles Virus [5] = assay: microbe, parasite or virus in culture; type: cell-based; conditions: Measles morbillivirus, BSC-1; Measles Virus; read-out: CPI Inhibition EC50
in vitro [6] = conditions: human
Adenovirus Type 5 [7] = assay: microbe, parasite or virus in culture; type: cell-based; conditions: Human mastadenovirus C, A549, read-out: CPE Inhibition EC50
[8] = system: Influenza A (H1N1) Texas/36/91; assay: microbe, parasite or virus in culture; type: cell-based, influenza A virus; conditions: Influenza A virus, MDCK; Influenza A (H1N1) Texas/36/91; read-out: Neutral Red EC50
[9] = Cytotoxicity by neutral red dye uptake, MA-104 cells; conditions: African green monkey, Neutral Red IC50 (cytotoxic)
in vitro [10] = conditions: dog
Adenovirus Type 5 [11] = assay: Adenovirus type 5 neutral red dye uptake in A549 cells; type: cell-based; conditions: Human mastadenovirus C, A549; Adenovirus Type 5; read-out: Neutral Red EC50
Influenza B Panama/45/90 = assay: microbe, parasite or virus in culture; type: cell-based; conditions: Influenza B virus, MDCK; Influenza B Panama/45/90; read-out: CPE Inhibition EC50
[12] = system: Parainfluenza Type 3 Virus; assay: organism not typed; type: cell-based; conditions: MA104; Parainfluenza Type 3 Virus; read-out: CPI Inhibition EC50
HIV-1 RT = target: T1, HIV-1 RT (Human immunodeficiency virus type 1 group M subtype B, UniProt P03366); assay: Anti-HIV-1 RT assay (recombinant enzyme); type: biochemical
T1 construct: made in house; host or cells: Escherichia coli

Hepatitis B Virus (HBV) [13] = assay: Inhibition of HBV replication in 2.2.15 cells, extracellular (virion) HBV DNA; conditions: for EC90: 2.2.15 cells; for SI (CC50/EC90), HBV Virion: selective index;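 for all read-outs here: extracellular virion HBV DNA in culture medium measured by slot blot hybridization with a 32P-labeled HBV probe, quantified against HBV DNA standards, after 9 days of daily dosing, compared with day 0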
Procedure: as §1
Determination of therapeutic concentrations (EC50 and EC90) and toxicity concentrations (IC50) were determined as previously described (90). Stock solutions of text drugs were prepared in DMSO. Culture medium was changed daily and analyzed for extracellular HBV DNA after nine days of continuous drug exposure. Extracellular HBV DNA was extracted from the culture media and analyzed by a slot blot hydridization technique, using a ^32P-labeled Eco RI HBV DNA fragment, as previously described (91), and quantitated via comparison to HBV standards on a nitrocellulose filter, using an AMBIS beta scanner. Toxicity was determined by measuring inhibition of neutral red dye uptake. […] Effective concentration values for individual agents are the mean of six cultures per concentration point. Toxicity values are the mean of three cultures per concentration point.

HSV-1 = HSV-1 CPE inhibition in HFF cells; conditions: for HSV-1 SI (CC50/EC50): HFF Cells
in vitro [14] = conditions: dog, Neutral Red IC50 (cytotoxic)
in vitro [15] = conditions: African green monkey
[16] = Cytotoxicity in uninfected PHA-stimulated human PBM cells; conditions: human
[17] = range-finding, CMC vehicle, 200 mg/kg/day i.p. twice daily for 5 days
[18] = range-finding, DMSO, 75 mg/kg/day, 0.05 mL injection volume
[19] = range-finding, DMSO, 250 mg/kg/day i.p. twice daily for 5 days, 0.1 mL
[20] = robustaflavone in DMSO, 37.5 mg/kg/day i.p. bid × 5
[21] = robustaflavone in DMSO, 75 mg/kg/day i.p. bid × 5

## O=c1cc(-c2ccc(O)c(-c3c(O)cc4oc(-c5ccc(O)cc5)cc(=O)c4c3O)c2)oc2cc(O)cc(O)c12 [Robustaflavone (3), robustaflavone]
CMC, 200 and 100 mg/kg/day
  tolerability in the antiviral experiment (in words): well tolerated
DMSO, 37.5 mg/kg/day
  toxicity control mice killed: 2 of 3
DMSO, 75 mg/kg/day
  toxicity in the antiviral experiment (in words): lethally toxic
DMSO, 75 and 37.5 mg/kg/day
  toxicity in the antiviral experiment (in words): toxic to the mice
female, BALB/c, mouse, in vivo, ip, 200 mg/kg/day
  Toxicity Controls Surv/Total: 3/3
mouse, in vivo, ip, 200 mg/kg/day
  Toxicity Controls Mean Weight Change: 1.5 g
mouse, in vivo, ip, 1005 mg/kg/day
  Toxicity Controls Mean Weight Change: 1.9 g
[17]
  tolerability (in words): reasonably well tolerated
  weight lost in the 5-day treatment period: 0.1 g
[18]
  survival (in words): all mice survived
  weight lost during the 5-day treatment period: 2 g
[19]
  tolerability (in words): lethally toxic
  weight loss: 6 g
Robustaflavone in 0.4% CMC, 1005 mg/kg/day (so in the source) i.p. bid × 5
  Toxicity Controls Surv/Total: 4/4
[20]
  Toxicity Controls Mean Weight Change: -0.8 g
  Toxicity Controls Surv/Total: 1/3
[21]
  Toxicity Controls Mean Weight Change: -1.7 g
  Toxicity Controls Surv/Total: 0/3
[1]
  IC50: ~100 mg/L (≈ 186 µM)
[2]
  EC50: 39 mg/L (≈ 72.4 µM)
Hepatitis B Virus (HBV) [3]; Hepatitis B virus, read-out: EC50, HBV replication intermediates (RI) (intracellular DNA)
  EC50: 0.6 µM
Hepatitis B Virus (HBV) [3]; Hepatitis B virus, read-out: EC50, second value in parentheses
  EC50: 0.6 µM
Hepatitis B Virus (HBV) [3]; Hepatitis B virus, Table 2, value in parentheses, not explained, read-out: EC90, second value in parentheses
  EC90: 5.6 µM
Hepatitis B Virus (HBV) [3]; Table 2, value in parentheses, not explained
  SI (CC50/EC90), second value in parentheses: 60
Measles Virus [4]
  EC50: < 30 mg/L
Measles Virus [5]
  EC50: < 14 mg/L
In vitro [6]
  IC50: 56 mg/L (≈ 104 µM)
Adenovirus Type 5 [7]
  EC50: > 100 mg/L
[8]
  EC50: 2 mg/L (≈ 3.71 µM)
[9]; Parainfluenza Type 3 Virus test
  IC50: 79 mg/L (≈ 147 µM)
[9]; Respiratory Syncytial Virus test
  IC50: ~100 mg/L (≈ 186 µM)
In vitro [10]; CPE Inhibition IC50 (50% cell inhibitory (cytotoxic) concentration), Influenza A (H1N1) test
  IC50: 18 mg/L (≈ 33.4 µM)
In vitro [10]; CPE Inhibition IC50 (cytotoxic), Influenza A (H3N2) test
  IC50: 32 mg/L (≈ 59.4 µM)
In vitro [10]; CPE Inhibition IC50 (cytotoxic), Influenza B test
  IC50: ~100 mg/L (≈ 186 µM)
Adenovirus Type 5 [11]
  EC50: > 100 mg/L
Influenza B Panama/45/90
  EC50: 0.23 mg/L (≈ 0.427 µM)
[12]
  EC50: > 100 mg/L
HIV-1 RT; Anti-HIV-1 RT IC50, values in parentheses or in words
  IC50: 65 µM
HIV-1 RT; HIV-1 RT IC50 (50% inhibition dose)
  IC50: 62.6 µM and 65.4 µM
HIV-1 RT; read-out: Anti-HIV-1 RT % Inhibition at 200 μg/ml
  inhibition at 200 µg/mL: 91.4%
Hepatitis B Virus (HBV) [13]; Hepatitis B virus, read-out: EC50, concentration necessary to decrease HBV DNA levels by 50%, 2.2.15 cells, combinations: with respect to RF
  EC50: 0.25 µM
Hepatitis B Virus (HBV) [13]; read-out: EC90 (90% effective dose), HBV Virion, extracellular (virion) HBV DNA, 9 days treatment
  EC90: 2.4 µM
Hepatitis B Virus (HBV) [13]; read-out: EC90 (90% effective dose), HBV Virion, extracellular (virion) HBV DNA, 9 days treatment, listed as Robustaflavone
  EC90: 2.2 µM
Hepatitis B Virus (HBV) [13]; read-out: EC90, concentration necessary to decrease HBV DNA levels by 90%, combinations: with respect to RF
  EC90: 2.2 µM
Hepatitis B Virus (HBV) [13]
  SI (CC50/EC90), HBV Virion: 153
Hepatitis B Virus (HBV) [13]; listed as Robustaflavone
  SI (CC50/EC90), HBV Virion: 153
Hepatitis B Virus (HBV) [13]; listed as robustaflavone
  SI (CC50/EC90), HBV Virion: 153
HSV-1; listed as Robustaflavone(3)
  HSV-1 SI (CC50/EC50): >11.6
HSV-1; listed as robustaflavone (3)
  HSV-1 SI (CC50/EC50): > 11.6
HSV-1; Human alphaherpesvirus 1, HFF, read-out: HSV-1 CPE Inhibition EC50
  EC50: 8.6 mg/L (≈ 16 µM)
In vitro [14]; Influenza A (H1N1) test
  IC50: ~32 mg/L (≈ 59.4 µM)
In vitro [14]; Influenza A (H3N2) test
  IC50: ~100 mg/L (≈ 186 µM)
In vitro [14]; Influenza B test
  IC50: 100 mg/L (≈ 186 µM)
In vitro [15]
  IC50: < 14 mg/L
[16]
  IC50: 77 µM
